Drawing on US7829588B2, “Modulators of the PPAR-type receptors and pharmaceutical/cosmetic applications thereof” (Galderma Research & Development, priority 2003, dated 2010), this text covers Kd for 2 compounds.

The target of one experiment is T1, PPARγ (Homo sapiens, UniProt P37231).
T1 construct: luciferase reporter plasmid ERE-βGlob-Luc-SV-Neo
T1 sequence (P37231 238-505 limits assumed): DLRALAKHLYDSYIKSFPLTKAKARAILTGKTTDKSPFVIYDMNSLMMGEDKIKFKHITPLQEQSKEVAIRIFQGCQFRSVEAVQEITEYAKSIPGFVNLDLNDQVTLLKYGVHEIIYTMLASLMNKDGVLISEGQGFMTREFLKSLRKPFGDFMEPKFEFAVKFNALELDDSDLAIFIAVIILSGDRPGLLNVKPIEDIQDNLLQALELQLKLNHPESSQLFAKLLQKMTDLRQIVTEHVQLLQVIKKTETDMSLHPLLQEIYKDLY
As to the kind of experiment: Cross curve PPAR transactivation test (luciferase reporter, HeLN cells), PPARγ. Format: cell-based. To be noted: HeLN cells stably transfected with Gal-hPPARγ and ERE-βGlob-Luc-SV-Neo; Schild regression against reference agonist; read-out: PPAR γ Kd app. As to the method:
(§1) The activation of receptors with an agonist (activator) in HeLN cells leads to the expression of a reporter gene, luciferase, which, in the presence of a substrate, generates light. The modulation of the receptors is measured as quantity of luminescence produced after incubating the cells in the presence of a reference agonist. The ligands will displace the agonist from its site. The measurement of the activity is performed by quantification of the light produced. This measurement makes it possible to determine the modulatory activity of the compounds according to the invention by determining the constant which is the affinity of the molecule for the receptor. […]
(§2) The various dilutions of the test products and of the reference ligand are added in an amount of 5 μl per well. […] After 5 minutes, the plates are read by the luminescence reader.
(§3) These cross curves make it possible to determine the AC50 values (concentrations at which 50% activation is observed) for the reference ligand at various concentrations of test product. These AC50 values are used to calculate the Schild regression by plotting a straight line corresponding to the Schild equation (“Quantitation in Receptor Pharmacology” Terry P. Kenakin, Receptors and Channels, 2001, 7, 371-385) which leads to Kd app values being obtained (in nM).
(A reporter such as luciferase makes a cellular process visible.)

Another experiment addresses T2, PPARα (Homo sapiens, UniProt Q07869).
T2 sequence (Q07869 200-468 limits assumed): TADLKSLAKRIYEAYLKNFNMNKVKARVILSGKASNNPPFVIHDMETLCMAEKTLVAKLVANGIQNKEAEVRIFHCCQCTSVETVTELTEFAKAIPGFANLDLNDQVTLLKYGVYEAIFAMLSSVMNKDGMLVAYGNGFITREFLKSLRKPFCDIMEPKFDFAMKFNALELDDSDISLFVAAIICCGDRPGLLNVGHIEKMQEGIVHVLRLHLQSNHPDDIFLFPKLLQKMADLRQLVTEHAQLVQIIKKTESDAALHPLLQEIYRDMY
As to the kind of experiment: Cross curve PPAR transactivation test (luciferase reporter, HeLN cells), PPARα. The experiment is classed as cell-based. To be noted: HeLN cells stably transfected with Gal-hPPARα and ERE-βGlob-Luc-SV-Neo; Schild regression against reference agonist; n.a. means not active; read-out: PPAR α Kd app. As to the method:
as §1, §2, §3

Consider `CCCCCCCOc1cc(Sc2nnc(-c3ccc(C(C)(C)C)cc3)n2C)ccc1CNc1ccc(CC(=O)OCC)cc1` [Example 1, Ethyl(4-{4-[5-(4-tert-butylphenyl)-4-methyl-4H-[1,2,4]-triazol-3-ylsulfanyl]-2-heptyloxybenzylamino}phenyl)acetate], for which, at PPARγ, the Kd came out at 60 nM.
On to `CCCCCCCOc1cc(Sc2nnc(-c3ccc(C(C)(C)C)cc3)n2C)ccc1CNc1ccc(CC(=O)O)cc1` [Example 2, (4-{4-[5-(4-tert-Butylphenyl)-4-methyl-4H-[1,2,4]-triazol-3-ylsulfanyl]-2-heptyloxybenzylamino}phenyl)acetic acid], for which the values for the Kd at PPARα and on PPARγ were 8000 nM and 15 nM, respectively.
